Test results: ChEMBL document CHEMBL3832062, “DailyMed|setid=a9c47f08-bd02-4731-aaf7-42173155b2d0 | XENICAL- orlistat capsule|A-S Medication Solutions LLC”

Experiment: Pharmacokinetic parameters for Orlistat evaluated after of oral administration of Orlistat capsules.
Type: ADME, organism-based
Settings: human, in vivo, dosed compound id 42, dosed compound name ORLISTAT, tissue Plasma

CCCCCCCCCCC[C@@H](C[C@@H]1OC(=O)[C@H]1CCCCCC)OC(=O)[C@H](CC(C)C)NC=O [ORLISTAT]
half-life: 1 to 2 h | fraction unbound (read-out: Protein binding): 0.01 to 0.99
